In one series the target is T1, Cytochrome P450 2B6 (Homo sapiens, UniProt P20813).
T1 sequence (P20813 whole entry): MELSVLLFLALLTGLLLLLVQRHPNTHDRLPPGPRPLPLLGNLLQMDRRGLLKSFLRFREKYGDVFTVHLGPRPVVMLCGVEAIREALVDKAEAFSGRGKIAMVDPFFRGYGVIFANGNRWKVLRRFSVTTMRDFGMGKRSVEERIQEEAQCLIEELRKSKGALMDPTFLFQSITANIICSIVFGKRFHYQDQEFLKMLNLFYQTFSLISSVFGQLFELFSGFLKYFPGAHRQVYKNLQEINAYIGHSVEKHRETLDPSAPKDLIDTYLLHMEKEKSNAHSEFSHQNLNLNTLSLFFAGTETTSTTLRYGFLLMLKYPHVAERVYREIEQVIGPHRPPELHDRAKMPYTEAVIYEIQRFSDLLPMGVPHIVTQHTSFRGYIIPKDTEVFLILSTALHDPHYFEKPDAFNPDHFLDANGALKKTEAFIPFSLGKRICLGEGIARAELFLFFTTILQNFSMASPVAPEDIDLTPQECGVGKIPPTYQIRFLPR

The nature of series [1]: Unbound AUC in orally dosed NOD-SCID IL2Rgamma null mouse infected with Plasmodium falciparum 3D70087/N9 administered days after 3 post infection once daily for 4 days measured on day 7 by flow cytometry. Format: ADME, organism-based. The following applies: in vivo, po, 96 h, time 4 day. (In flow cytometry, cells or beads pass a laser one at a time.)
Series [2] can be described thus: Mutagenicity in Salmonella typhimurium by Ames test. The following applies: salmonella enterica subsp. enterica serovar typhimurium. Format: toxicity.
Another series in a line: in vivo. The following applies: Swiss, mouse, po.
For series [3] the following is noted: rat, in vivo, po, 10 mg/kg, 24 h.
The target in the next series is Albumin (Bos taurus, UniProt P02769). Briefly: Binding affinity to bovine serum albumin by Albumax assay. It counts as ADME. The following applies: cattle, isolated protein.

Some results are limits rather than exact numbers.

As usually defined, the IC50 is the concentration at which inhibition is half-maximal. A higher IC50 goes with weaker potency in that assay. Usually Tmax stands for the time at which the peak concentration occurs. Broadly, the Cmax is the highest concentration seen after dosing.

Albumin, sequence (P02769 whole entry): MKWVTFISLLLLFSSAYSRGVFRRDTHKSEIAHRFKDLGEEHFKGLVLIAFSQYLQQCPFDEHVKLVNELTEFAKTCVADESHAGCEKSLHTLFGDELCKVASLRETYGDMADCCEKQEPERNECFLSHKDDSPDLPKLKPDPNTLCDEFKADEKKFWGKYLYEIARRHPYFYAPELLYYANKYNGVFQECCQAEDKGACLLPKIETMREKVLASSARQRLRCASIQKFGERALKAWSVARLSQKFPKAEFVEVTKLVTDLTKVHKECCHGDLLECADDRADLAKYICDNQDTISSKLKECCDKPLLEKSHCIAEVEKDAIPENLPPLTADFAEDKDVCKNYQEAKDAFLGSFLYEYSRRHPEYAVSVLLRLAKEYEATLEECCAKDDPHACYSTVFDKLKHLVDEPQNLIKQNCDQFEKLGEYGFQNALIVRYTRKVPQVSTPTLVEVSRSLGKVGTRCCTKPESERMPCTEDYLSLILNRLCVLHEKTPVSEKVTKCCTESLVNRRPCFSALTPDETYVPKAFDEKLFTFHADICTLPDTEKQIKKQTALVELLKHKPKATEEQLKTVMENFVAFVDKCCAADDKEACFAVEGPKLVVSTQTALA

The compound `Cc1c(C2(c3ccc(C(F)(F)F)nc3)CC2)c[nH]c1C(=O)NC(C)c1nc[nH]n1` (stereo in doubt; form 1) came in with an IC50 against Cytochrome P450 2B6 above 20 µM. Also, the fAUC in series [1] stood at 4.1 µM·h. The Activity result in series [2] is reported as “Non-Toxic”; on Albumin it was 71.9%. Besides, in the series “in vivo”, the Tmax at 24 h stood at 4 h. The same compound displayed a Cmax in series [3] of 6 µM.

Values taken from ChEMBL document CHEMBL4811258, “Potent Antimalarials with Development Potential Identified by Structure-Guided Computational Optimization of a Pyrrole-Based Dihydroorotate Dehydrogenase Inhibitor Series” (J Med Chem, 2021).
